Experiments:
[1] = system: rabbits subjected to anterior cruciate ligament transection (ACLT); assay: Rabbit ACLT study, modified Mankin scoring; format: in vivo
Protocol: The femora and tibias were decalcified, embedded in paraffin, sectioned at 5-7 µm at two different levels separated by approximately 2 mm, and stained with safranin O and toluidine blue.
Both tibial plateaus and femoral condyles were subjected to semi-quantitative scoring using a modified Mankin scoring system. Slides were evaluated in animal ID order, i.e. in random order with respect to treatment, so that the reader was effectively blinded to treatment assignment.
Analysis was performed on the tibial plateaus and femoral condyles at two levels (Level 1 and 2) for each:
Group 1) sham + vehicle; Group 2) ACLT + vehicle; Group 3) ACLT + MIV-711, 30 µmol/kg (low dose) and Group 4) ACLT + MIV-711, 100 µmol/kg (high dose).

[2] = system: cartilage degradation biomarker CTX-II; assay: Urinary CTX-II (cartilage degradation biomarker) in ACLT rabbits; format: in vivo, rabbit
Protocol: Starting 1 week after sham operation or ACLT, animals were dosed daily for 7 weeks by oral gavage with either MIV-711 (synthesized by Medivir and given as a suspension in 1% Methocel A4C in water) or vehicle (1% Methocel A4C in water) at a dose volume of 4 mL/kg. The four treatment groups (n = 7 in each group) were: (1) sham + vehicle; (2) ACLT + vehicle; (3) ACLT + MIV-711, 30 µmol/kg (low dose) and (4) ACLT + MIV-711, 100 µmol/kg (high dose).
Urine was collected in the morning from all animals for biomarker measurements before surgery, before dosing on Day 1, Day 10 and during Week 4 and Week 7. The urine was stored frozen (− 70 to − 80 °C) until analysis.
In rabbits, conventional CTX-I assays to assess bone resorption cannot be used due to species differences. Instead, urinary helical peptide (HP-1) concentrations were measured in rabbits using the MicroVue Helical Peptide kit (Ref: 8022) from Quidel (San Diego, CA) according to the instructions supplied by the manufacturer. In dogs, urinary levels of C-terminal telopeptide of collagen type I (CTX-I) were measured using a commercially available kit (Urine BETA CrossLaps ELISA, Ref: AC-05F1, IDS Nordic Bioscience Diagnostics A/S). In rabbits and dogs, urinary concentrations of C-terminal telopeptide of collagen type II (CTX-II) were measured using the Urine CartiLaps EIA kit (Ref: AC-10F1) from Immunodiagnostics Systems (IDS, Herlev, Denmark) according to the instructions supplied by the manufacturer. In dogs, CTX-II levels were also measured in synovial fluid. Before ELISA analysis, 95 µL of synovial fluid was mixed with 5 µL of hyaluronidase (100 U/mL, Sigma, H-3884). The mixture was incubated overnight at 35 °C. The mixture was then used to measure CTX-II levels (Serum Pre-Clinical CartiLaps ELISA, Ref: AC-08F1, IDS Nordic Bioscience Diagnostics A/S). The creatinine levels in urine were determined at Swedish University of Agricultural Sciences (Uppsala, Sweden), using the enzymatic assay (Cat No. 8L24-01) on the Abbott system Architect c4000.

CTX-II = assay: Urinary CTX-II in dogs subjected to partial medial meniscectomy; format: in vivo; details: dog, 30 µmol/kg
Protocol: Dogs subjected to partial medial meniscectomy received either 30 µmol/kg MIV-711 (synthesized by Medivir and given as a suspension in 1% Methocel A4C; n = 15) or vehicle (1% Methocel A4C; n = 15) by orogastric gavage once daily in the morning. […] Dosing started the day before surgery and lasted through Day 28, the day before necropsy. Each dog was fasted for at least 12 h before dosing and food were returned approximately 4 h following test article administration.
Urine samples were collected from the animals 1 to 3 days before surgery and treatment (baseline sample), 4 to 7 days after the start of treatment (Day 7 sample) and 26 to 28 days after treatment (Day 28 sample). Dogs were housed in metabolic cages overnight during urine collection. […]
In rabbits, conventional CTX-I assays to assess bone resorption cannot be used due to species differences. Instead, urinary helical peptide (HP-1) concentrations were measured in rabbits using the MicroVue Helical Peptide kit (Ref: 8022) from Quidel (San Diego, CA) according to the instructions supplied by the manufacturer. In dogs, urinary levels of C-terminal telopeptide of collagen type I (CTX-I) were measured using a commercially available kit (Urine BETA CrossLaps ELISA, Ref: AC-05F1, IDS Nordic Bioscience Diagnostics A/S). […] In dogs, CTX-II levels were also measured in synovial fluid. […]

[3] = Group 3: ACLT + MIV-711, 30 µmol/kg (low dose)
[4] = Group 4: ACLT + MIV-711, 100 µmol/kg (high dose)

C#C[C@@H]1CN(C(=O)[C@H](CC(C)C)NC(=O)c2ccc(-c3nc(N4CCN(C)CC4)sc3F)cc2)[C@@H]2C(=O)CO[C@H]12 [MIV-711]
effect on Mankin scores ([1]; ACLT rabbits, 30 and 100 µmol/kg): did not affect | Total Mankin score Level 1+2_FC, mean [1, 3]: 58.86 | Total Mankin score Level 1+2_FC, median [1, 3]: 58.00 | Total Mankin score Level 1+2_LFC, mean [1, 3]: 21.14 | Total Mankin score Level 1+2_LFC, median [1, 3]: 17.00 | Total Mankin score Level 1+2_LTP, mean [1, 3]: 9.71 | Total Mankin score Level 1+2_LTP, median [1, 3]: 10.00 | Total Mankin score Level 1+2_MFC, mean [1, 3]: 37.71 | Total Mankin score Level 1+2_MFC, median [1, 3]: 43.00 | Total Mankin score Level 1+2_MTP, mean [1, 3]: 16.71 | Total Mankin score Level 1+2_MTP, median [1, 3]: 16.00 | Total Mankin score Level 1+2_TP, mean [1, 3]: 26.43 | Total Mankin score Level 1+2_TP, median [1, 3]: 26.00 | Total Mankin score Level 1_FC, mean [1, 3]: 32.14 | Total Mankin score Level 1_FC, median [1, 3]: 32.00 | Total Mankin score Level 1_LFC, mean [1, 3]: 12.00 | Total Mankin score Level 1_LFC, median [1, 3]: 10.00 | Total Mankin score Level 1_LTP, mean [1, 3]: 5.57 | Total Mankin score Level 1_LTP, median [1, 3]: 4.00 | Total Mankin score Level 1_MFC, mean [1, 3]: 20.14 | Total Mankin score Level 1_MFC, median [1, 3]: 23.00 | Total Mankin score Level 1_MTP, mean [1, 3]: 9.86 | Total Mankin score Level 1_MTP, median [1, 3]: 9.00 | Total Mankin score Level 1_TP, mean [1, 3]: 15.43 | Total Mankin score Level 1_TP, median [1, 3]: 16.00 | Total Mankin score Level 2_FC, mean [1, 3]: 26.71 | Total Mankin score Level 2_FC, median [1, 3]: 26.00 | Total Mankin score Level 2_LFC, mean [1, 3]: 9.14 | Total Mankin score Level 2_LFC, median [1, 3]: 7.00 | Total Mankin score Level 2_LTP, mean [1, 3]: 4.14 | Total Mankin score Level 2_LTP, median [1, 3]: 4.00 | Total Mankin score Level 2_MFC, mean [1, 3]: 17.57 | Total Mankin score Level 2_MFC, median [1, 3]: 20.00 | Total Mankin score Level 2_MTP, mean [1, 3]: 6.86 | Total Mankin score Level 2_MTP, median [1, 3]: 6.00 | Total Mankin score Level 2_TP, mean [1, 3]: 11.00 | Total Mankin score Level 2_TP, median [1, 3]: 12.00 | Total Mankin score Level 1+2_FC, mean [1, 4]: 49.71 | Total Mankin score Level 1+2_FC, median [1, 4]: 51.00 | Total Mankin score Level 1+2_LFC, mean [1, 4]: 21.14 | Total Mankin score Level 1+2_LFC, median [1, 4]: 21.00 | Total Mankin score Level 1+2_LTP, mean [1, 4]: 12.71 | Total Mankin score Level 1+2_LTP, median [1, 4]: 12.00 | Total Mankin score Level 1+2_MFC, mean [1, 4]: 28.57 | Total Mankin score Level 1+2_MFC, median [1, 4]: 27.00 | Total Mankin score Level 1+2_MTP, mean [1, 4]: 17.43 | Total Mankin score Level 1+2_MTP, median [1, 4]: 14.00 | Total Mankin score Level 1+2_TP, mean [1, 4]: 30.14 | Total Mankin score Level 1+2_TP, median [1, 4]: 27.00 | Total Mankin score Level 1_FC, mean [1, 4]: 25.43 | Total Mankin score Level 1_FC, median [1, 4]: 29.00 | Total Mankin score Level 1_LFC, mean [1, 4]: 10.57 | Total Mankin score Level 1_LFC, median [1, 4]: 10.00 | Total Mankin score Level 1_LTP, mean [1, 4]: 6.29 | Total Mankin score Level 1_LTP, median [1, 4]: 7.00 | Total Mankin score Level 1_MFC, mean [1, 4]: 14.86 | Total Mankin score Level 1_MFC, median [1, 4]: 15.00 | Total Mankin score Level 1_MTP, mean [1, 4]: 9.29 | Total Mankin score Level 1_MTP, median [1, 4]: 8.00 | Total Mankin score Level 1_TP, mean [1, 4]: 15.57 | Total Mankin score Level 1_TP, median [1, 4]: 16.00 | Total Mankin score Level 2_FC, mean [1, 4]: 24.29 | Total Mankin score Level 2_FC, median [1, 4]: 23.00 | Total Mankin score Level 2_LFC, mean [1, 4]: 10.57 | Total Mankin score Level 2_LFC, median [1, 4]: 10.00 | Total Mankin score Level 2_LTP, mean [1, 4]: 6.43 | Total Mankin score Level 2_LTP, median [1, 4]: 6.00 | Total Mankin score Level 2_MFC, mean [1, 4]: 13.71 | Total Mankin score Level 2_MFC, median [1, 4]: 13.00 | Total Mankin score Level 2_MTP, mean [1, 4]: 8.14 | Total Mankin score Level 2_MTP, median [1, 4]: 7.00 | Total Mankin score Level 2_TP, mean [1, 4]: 14.57 | Total Mankin score Level 2_TP, median [1, 4]: 14.00 | CTX-II levels decreased by up to, vs ACLT vehicle controls ([2]; ACLT rabbits, over doses 30 and 100 µmol/kg and time points): up to 74% | urinary CTX-II levels reduced by, vs ACLT rabbits treated with vehicle ([2]; after 4 weeks, 30 µmol/kg (p > 0.05)): 38% | urinary CTX-II levels reduced by, vs ACLT rabbits treated with vehicle ([2]; after 4 weeks, 100 µmol/kg): 49% | urinary CTX-II levels reduced by, vs ACLT rabbits treated with vehicle ([2]; after 7 weeks, 30 µmol/kg (p > 0.05)): 14% | urinary CTX-II levels reduced by, vs ACLT rabbits treated with vehicle ([2]; after 7 weeks, 100 µmol/kg): 52% | urinary CTX-II levels reduced by, vs ACLT rabbits treated with vehicle ([2]; after 10 days of dosing, 30 µmol/kg): 53% | urinary CTX-II levels reduced by, vs ACLT rabbits treated with vehicle ([2]; after 10 days of dosing, 100 µmol/kg): 74% | urinary CTX-II levels reduced by (CTX-II; Day 7, vs. baseline): 80% | urinary CTX-II levels reduced by (CTX-II; Day 28, vs. baseline): 80%

From publication PMC5845353, “The selective cathepsin K inhibitor MIV-711 attenuates joint pathology in experimental animal models of osteoarthritis” (Journal of Translational Medicine, 2018)
